What all share (format): cell-based
Holding throughout (conditions): compounds at 50 nM and 500 nM

One test deals with T1, WEE1 (Homo sapiens, UniProt P30291+Q96SW2).
T1 construct: The supernatant was aspirated as the extracted total cell protein; endogenous in cells; host or cells: human peripheral blood mononuclear cells (hPBMCs)
The test is described as follows: Western blot degradation of WEE1 in hPBMCs (24 h). The essentials:
(§1)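 hPBMCs (1×10^6 cells/mL) were treated with compound at 50 nM and 500 nM for 24 h, lysed in RIPA with protease inhibitors and analysed by SDS-PAGE/Western blot. Band grayscale, normalised to internal control, gave protein remaining (%); DC50 estimated versus DMSO bands.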

In the next test the target is T2, IKZF1 (Homo sapiens, UniProt Q13422+Q96SW2).
T2 construct: The supernatant was aspirated as the extracted total cell protein; endogenous in cells; host or cells: human peripheral blood mononuclear cells (hPBMCs)
The test is described as follows: Western blot degradation of IKZF1 in hPBMCs (24 h). The essentials:
as §1

Another test addresses T3, IKZF2 (Homo sapiens, UniProt Q96SW2+Q9UKS7).
T3 construct: The supernatant was aspirated as the extracted total cell protein; endogenous in cells; host or cells: human peripheral blood mononuclear cells (hPBMCs)
The test is described as follows: Western blot degradation of IKZF2 in hPBMCs (24 h). The gist of the method:
as §1

Another test has as its target T4, IKZF3 (Homo sapiens, UniProt Q96SW2+Q9UKT9).
T4 construct: The supernatant was aspirated as the extracted total cell protein; endogenous in cells; host or cells: human peripheral blood mononuclear cells (hPBMCs)
As to the kind of experiment: Western blot degradation of IKZF3 in hPBMCs (24 h). The essentials: as §1

The next test deals with T5, CK1α (Homo sapiens, UniProt P48729+Q96SW2).
T5 construct: The supernatant was aspirated as the extracted total cell protein; endogenous in cells; host or cells: human peripheral blood mononuclear cells (hPBMCs)
The test is described as follows: Western blot degradation of CK1α in hPBMCs (24 h). The gist of the method:
as §1
In general terms: A western blot detects proteins with antibodies after separation by electrophoresis.

The next test concerns the target T6, GSPT1 (Homo sapiens, UniProt P15170+Q96SW2).
T6 construct: The supernatant was aspirated as the extracted total cell protein; endogenous in cells; host or cells: human peripheral blood mononuclear cells (hPBMCs)
The test is described as follows: Western blot degradation of GSPT1 in hPBMCs (24 h). The essentials:
as §1

T6 sequence (P15170 whole entry): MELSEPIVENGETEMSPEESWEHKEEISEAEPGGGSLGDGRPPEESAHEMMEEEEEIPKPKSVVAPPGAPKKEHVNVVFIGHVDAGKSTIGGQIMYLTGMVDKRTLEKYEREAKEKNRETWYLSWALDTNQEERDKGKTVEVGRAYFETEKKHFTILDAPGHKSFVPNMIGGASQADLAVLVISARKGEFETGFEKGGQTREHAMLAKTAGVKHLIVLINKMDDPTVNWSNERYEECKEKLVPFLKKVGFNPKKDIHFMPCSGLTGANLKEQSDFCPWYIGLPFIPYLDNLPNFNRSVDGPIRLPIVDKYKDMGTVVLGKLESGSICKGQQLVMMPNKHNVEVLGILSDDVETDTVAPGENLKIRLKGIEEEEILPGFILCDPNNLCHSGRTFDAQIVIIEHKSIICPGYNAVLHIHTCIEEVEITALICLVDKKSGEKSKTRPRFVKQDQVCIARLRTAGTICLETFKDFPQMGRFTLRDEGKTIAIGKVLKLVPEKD
T6 sequence (Q96SW2 whole entry): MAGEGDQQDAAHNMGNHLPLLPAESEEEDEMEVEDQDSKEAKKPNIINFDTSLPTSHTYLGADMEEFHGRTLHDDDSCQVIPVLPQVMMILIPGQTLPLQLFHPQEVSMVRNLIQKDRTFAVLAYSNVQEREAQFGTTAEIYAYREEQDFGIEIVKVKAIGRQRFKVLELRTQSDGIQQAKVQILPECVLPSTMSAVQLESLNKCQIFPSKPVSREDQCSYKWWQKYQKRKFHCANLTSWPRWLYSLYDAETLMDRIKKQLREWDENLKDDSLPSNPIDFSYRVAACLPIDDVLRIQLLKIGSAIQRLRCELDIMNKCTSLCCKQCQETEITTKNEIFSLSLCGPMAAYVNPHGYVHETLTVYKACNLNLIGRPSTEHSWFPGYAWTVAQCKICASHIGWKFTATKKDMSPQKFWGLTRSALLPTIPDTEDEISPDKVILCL
T6 sequence (Q16531 whole entry partner): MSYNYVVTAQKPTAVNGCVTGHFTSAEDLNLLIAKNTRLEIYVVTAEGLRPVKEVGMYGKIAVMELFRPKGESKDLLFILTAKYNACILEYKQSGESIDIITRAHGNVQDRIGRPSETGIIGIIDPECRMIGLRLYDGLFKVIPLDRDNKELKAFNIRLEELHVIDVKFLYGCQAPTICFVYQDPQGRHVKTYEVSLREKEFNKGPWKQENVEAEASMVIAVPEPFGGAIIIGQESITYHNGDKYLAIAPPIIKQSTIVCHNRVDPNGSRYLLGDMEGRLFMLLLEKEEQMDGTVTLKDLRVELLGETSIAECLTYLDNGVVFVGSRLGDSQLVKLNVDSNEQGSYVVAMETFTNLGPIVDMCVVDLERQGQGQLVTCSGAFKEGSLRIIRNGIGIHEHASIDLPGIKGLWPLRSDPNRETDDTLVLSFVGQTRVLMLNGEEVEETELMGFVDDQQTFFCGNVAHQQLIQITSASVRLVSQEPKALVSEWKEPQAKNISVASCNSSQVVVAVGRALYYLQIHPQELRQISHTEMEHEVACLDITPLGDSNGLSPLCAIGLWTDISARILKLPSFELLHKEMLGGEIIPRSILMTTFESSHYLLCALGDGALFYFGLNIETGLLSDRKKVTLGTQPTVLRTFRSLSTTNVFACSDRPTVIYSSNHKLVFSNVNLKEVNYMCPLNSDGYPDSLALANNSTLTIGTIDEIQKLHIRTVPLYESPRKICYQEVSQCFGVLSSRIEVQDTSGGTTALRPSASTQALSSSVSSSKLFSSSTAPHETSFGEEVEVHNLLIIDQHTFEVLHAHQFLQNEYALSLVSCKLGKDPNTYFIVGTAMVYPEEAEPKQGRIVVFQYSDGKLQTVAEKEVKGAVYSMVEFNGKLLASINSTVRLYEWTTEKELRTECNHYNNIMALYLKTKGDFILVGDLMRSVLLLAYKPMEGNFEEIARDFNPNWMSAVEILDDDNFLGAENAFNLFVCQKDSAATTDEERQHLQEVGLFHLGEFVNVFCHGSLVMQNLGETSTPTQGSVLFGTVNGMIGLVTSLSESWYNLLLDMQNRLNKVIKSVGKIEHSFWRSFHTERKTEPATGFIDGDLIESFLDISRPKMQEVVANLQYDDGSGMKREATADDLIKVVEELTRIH
T2 sequence (Q13422 whole entry): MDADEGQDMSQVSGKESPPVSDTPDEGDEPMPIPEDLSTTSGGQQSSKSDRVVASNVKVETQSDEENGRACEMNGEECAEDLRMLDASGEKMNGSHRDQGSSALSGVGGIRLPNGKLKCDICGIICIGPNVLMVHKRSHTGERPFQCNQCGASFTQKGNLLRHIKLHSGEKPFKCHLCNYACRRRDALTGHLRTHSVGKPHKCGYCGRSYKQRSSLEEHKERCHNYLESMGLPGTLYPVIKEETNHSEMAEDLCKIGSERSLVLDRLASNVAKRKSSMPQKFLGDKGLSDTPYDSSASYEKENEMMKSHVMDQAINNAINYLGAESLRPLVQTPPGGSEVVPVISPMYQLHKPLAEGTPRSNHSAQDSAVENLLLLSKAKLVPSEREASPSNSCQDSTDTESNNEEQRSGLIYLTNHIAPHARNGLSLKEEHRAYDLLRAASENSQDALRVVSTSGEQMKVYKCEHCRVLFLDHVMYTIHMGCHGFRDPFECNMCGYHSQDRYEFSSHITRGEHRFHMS
T2 sequence (Q96SW2 whole entry): as the sequence (Q96SW2 whole entry) above
T2 sequence (Q16531 whole entry partner): as the sequence (Q16531 whole entry partner) above
T5 sequence (P48729 whole entry): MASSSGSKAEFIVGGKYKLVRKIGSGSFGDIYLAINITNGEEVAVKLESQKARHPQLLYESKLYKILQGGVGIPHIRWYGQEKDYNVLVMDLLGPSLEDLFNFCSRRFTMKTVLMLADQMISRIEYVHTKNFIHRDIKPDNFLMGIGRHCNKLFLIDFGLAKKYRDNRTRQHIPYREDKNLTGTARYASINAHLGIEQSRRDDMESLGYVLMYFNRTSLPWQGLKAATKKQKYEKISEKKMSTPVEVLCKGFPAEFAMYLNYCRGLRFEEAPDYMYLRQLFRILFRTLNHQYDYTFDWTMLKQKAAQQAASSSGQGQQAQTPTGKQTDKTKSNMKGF
T5 sequence (Q96SW2 whole entry): as the sequence (Q96SW2 whole entry) above
T5 sequence (Q16531 whole entry partner): as the sequence (Q16531 whole entry partner) above
T4 sequence (Q9UKT9 whole entry): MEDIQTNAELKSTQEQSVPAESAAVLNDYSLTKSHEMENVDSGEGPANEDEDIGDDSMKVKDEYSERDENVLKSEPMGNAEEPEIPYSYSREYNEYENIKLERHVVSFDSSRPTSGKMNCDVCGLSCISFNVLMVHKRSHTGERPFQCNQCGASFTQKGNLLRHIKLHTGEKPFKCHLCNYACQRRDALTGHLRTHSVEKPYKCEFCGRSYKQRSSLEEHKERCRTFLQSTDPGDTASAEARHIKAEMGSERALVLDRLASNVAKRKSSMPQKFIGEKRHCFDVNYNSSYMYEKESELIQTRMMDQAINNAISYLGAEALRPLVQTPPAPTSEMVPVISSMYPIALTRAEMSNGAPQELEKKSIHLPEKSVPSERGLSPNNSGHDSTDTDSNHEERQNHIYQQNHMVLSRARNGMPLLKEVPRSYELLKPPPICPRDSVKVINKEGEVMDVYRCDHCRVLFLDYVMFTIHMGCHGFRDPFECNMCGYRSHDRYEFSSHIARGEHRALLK
T4 sequence (Q96SW2 whole entry): as the sequence (Q96SW2 whole entry) above
T4 sequence (Q16531 whole entry partner): as the sequence (Q16531 whole entry partner) above
T1 sequence (P30291 whole entry): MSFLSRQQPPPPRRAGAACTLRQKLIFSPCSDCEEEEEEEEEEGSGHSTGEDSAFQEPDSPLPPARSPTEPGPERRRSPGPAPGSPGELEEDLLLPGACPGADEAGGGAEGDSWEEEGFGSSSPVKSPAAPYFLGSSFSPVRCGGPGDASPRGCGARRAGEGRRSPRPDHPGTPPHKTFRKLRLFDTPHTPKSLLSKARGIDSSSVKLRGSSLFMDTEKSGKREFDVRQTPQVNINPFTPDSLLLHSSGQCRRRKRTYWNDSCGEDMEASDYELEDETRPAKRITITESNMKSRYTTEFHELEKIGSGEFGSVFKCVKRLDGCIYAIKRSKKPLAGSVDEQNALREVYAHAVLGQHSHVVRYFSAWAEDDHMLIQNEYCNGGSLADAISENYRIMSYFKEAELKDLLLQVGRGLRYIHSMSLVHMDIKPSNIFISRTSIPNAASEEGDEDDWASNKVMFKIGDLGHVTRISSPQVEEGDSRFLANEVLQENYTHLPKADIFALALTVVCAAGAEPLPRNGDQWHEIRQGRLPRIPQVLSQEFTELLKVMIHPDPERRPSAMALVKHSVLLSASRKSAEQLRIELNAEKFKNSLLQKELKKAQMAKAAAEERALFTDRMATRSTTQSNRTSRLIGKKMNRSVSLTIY
T1 sequence (Q96SW2 whole entry): as the sequence (Q96SW2 whole entry) above
T1 sequence (Q16531 whole entry partner): as the sequence (Q16531 whole entry partner) above

Take `Cc1nc(N2CCN(Cc3ccc4c(c3)C(=O)N(N3CCC(=O)NC3=O)C4=O)CC2)c2c(-c3ccccc3)csc2n1` [GT-08099, 2-(2,4-dioxotetrahydropyrimidin-1(2H)-yl)-5-((4-(2-methyl-5-phenylthieno[2,3-d]pyrimidin-4-yl)piperazin-1-yl)methyl)isoindoline-1,3-dione]: on WEE1, the “WEE1 substrate protein remaining %” value was “B (80%< substrate protein remaining % ≤100%)”. For the same compound, at IKZF1, the “IKZF1 substrate protein remaining %” value is recorded as “B (80%< substrate protein remaining % ≤100%)”. Moreover, the “IKZF2 substrate protein remaining %” value on IKZF2 is recorded as “B (80%< substrate protein remaining % ≤100%)”. Moreover, at IKZF3, the “IKZF3 substrate protein remaining %” value is on record as “B (80%< substrate protein remaining % ≤100%)”. Further, the “CK1α substrate protein remaining %” value on CK1α was “B (80%< substrate protein remaining % ≤100%)”. In addition, the “GSPT1 substrate protein remaining %” value on GSPT1 was “A (0% ≤ substrate protein remaining % ≤80%)”.
For `O=C1CCN(N2C(=O)c3ccc(CN4CCN(c5ncnc6sc7c(c56)CCC7)CC4)cc3C2=O)C(=O)N1` [GT-08103, 5-((4-(6,7-dihydro-5H-cyclopenta[4,5]thieno[2,3-d]pyrimidin-4-yl)piperazin-1-yl)methyl)-2-(2,4-dioxotetrahydropyrimidin-1(2H)-yl)isoindoline-1,3-dione], the “WEE1 substrate protein remaining %” value on WEE1 is “B (80%< substrate protein remaining % ≤100%)”. In addition, the “IKZF1 substrate protein remaining %” value on IKZF1 was “B (80%< substrate protein remaining % ≤100%)”. Besides, the “IKZF2 substrate protein remaining %” value at IKZF2 is “A (0% ≤ substrate protein remaining % ≤80%)”. Besides, on IKZF3, the “IKZF3 substrate protein remaining %” value is listed as “A (0% ≤ substrate protein remaining % ≤80%)”. Besides, the “CK1α substrate protein remaining %” value on CK1α was “B (80%< substrate protein remaining % ≤100%)”. Besides, the “GSPT1 substrate protein remaining %” value at GSPT1 is listed as “B (80%< substrate protein remaining % ≤100%)”.
Consider `Cc1nc(N2CCN(Cc3ccc4c(c3)C(=O)N(N3CCC(=O)NC3=O)C4=O)CC2)c2c3c(sc2n1)CCC3` [GT-08104, 2-(2,4-dioxotetrahydropyrimidin-1(2H)-yl)-5-((4-(2-methyl-6,7-dihydro-5H-cyclopenta[4,5]thieno[2,3-d]pyrimidin-4-yl)piperazin-1-yl)methyl)isoindoline-1,3-dione], for which the “WEE1 substrate protein remaining %” value at WEE1 is “A (0% ≤ substrate protein remaining % ≤80%)”. For the same compound, the “IKZF1 substrate protein remaining %” value on IKZF1 is “B (80%< substrate protein remaining % ≤100%)”. In addition, the “IKZF2 substrate protein remaining %” value on IKZF2 is on record as “A (0% ≤ substrate protein remaining % ≤80%)”. At IKZF3, the “IKZF3 substrate protein remaining %” value is reported as “A (0% ≤ substrate protein remaining % ≤80%)”. Further, the “CK1α substrate protein remaining %” value on CK1α was “B (80%< substrate protein remaining % ≤100%)”. Besides, the “GSPT1 substrate protein remaining %” value on GSPT1 is recorded as “A (0% ≤ substrate protein remaining % ≤80%)”.
Consider `O=C1CCN(N2C(=O)c3ccc(CN4CCN(c5ncc6ccsc6n5)CC4)cc3C2=O)C(=O)N1` [GT-08105, 2-(2,4-dioxotetrahydropyrimidin-1(2H)-yl)-5-((4-(thieno[2,3-d]pyrimidin-2-yl)piperazin-1-yl)methyl)isoindoline-1,3-dione], for which the “WEE1 substrate protein remaining %” value on WEE1 is “B (80%< substrate protein remaining % ≤100%)”. For the same compound, at IKZF1, the “IKZF1 substrate protein remaining %” value is listed as “B (80%< substrate protein remaining % ≤100%)”. Moreover, the “IKZF2 substrate protein remaining %” value at IKZF2 is listed as “A (0% ≤ substrate protein remaining % ≤80%)”. In addition, on IKZF3, the “IKZF3 substrate protein remaining %” value is recorded as “A (0% ≤ substrate protein remaining % ≤80%)”. Moreover, on CK1α, the “CK1α substrate protein remaining %” value is “B (80%< substrate protein remaining % ≤100%)”. Besides, at GSPT1, the “GSPT1 substrate protein remaining %” value is “A (0% ≤ substrate protein remaining % ≤80%)”.
In the case of `O=C1CCN(N2C(=O)c3ccc(CN4CCC(c5ncnc6sccc56)CC4)cc3C2=O)C(=O)N1` [GT-08106, 2-(2,4-dioxotetrahydropyrimidin-1(2H)-yl)-5-((4-(thieno[2,3-d]pyrimidin-4-yl)piperidin-1-yl)methyl)isoindoline-1,3-dione], the “WEE1 substrate protein remaining %” value at WEE1 is given as “A (0% ≤ substrate protein remaining % ≤80%)”. In addition, the “IKZF1 substrate protein remaining %” value on IKZF1 is recorded as “B (80%< substrate protein remaining % ≤100%)”. Also, at IKZF2, the “IKZF2 substrate protein remaining %” value is “B (80%< substrate protein remaining % ≤100%)”. The “IKZF3 substrate protein remaining %” value on IKZF3 was “B (80%< substrate protein remaining % ≤100%)”. The “CK1α substrate protein remaining %” value at CK1α is “B (80%< substrate protein remaining % ≤100%)”. Further, the “GSPT1 substrate protein remaining %” value at GSPT1 is listed as “A (0% ≤ substrate protein remaining % ≤80%)”.
With `Cc1cc2c(C3CCN(Cc4ccc5c(c4)C(=O)N(N4CCC(=O)NC4=O)C5=O)CC3)ncnc2s1` [GT-08107, 2-(2,4-dioxotetrahydropyrimidin-1(2H)-yl)-5-((4-(6-methylthieno[2,3-d]pyrimidin-4-yl)piperidin-1-yl)methyl)isoindoline-1,3-dione], the “WEE1 substrate protein remaining %” value at WEE1 was “A (0% ≤ substrate protein remaining % ≤80%)”. Also, at IKZF1, the “IKZF1 substrate protein remaining %” value is given as “A (0% ≤ substrate protein remaining % ≤80%)”. The “IKZF2 substrate protein remaining %” value on IKZF2 is listed as “A (0% ≤ substrate protein remaining % ≤80%)”. For the same compound, at IKZF3, the “IKZF3 substrate protein remaining %” value is “A (0% ≤ substrate protein remaining % ≤80%)”. In addition, at CK1α, the “CK1α substrate protein remaining %” value is “A (0% ≤ substrate protein remaining % ≤80%)”. The “GSPT1 substrate protein remaining %” value on GSPT1 is recorded as “A (0% ≤ substrate protein remaining % ≤80%)”.
As for `O=C1CCN(N2C(=O)c3ccc(CN4CCC(c5ncnc6sc(-c7ccccc7)cc56)CC4)cc3C2=O)C(=O)N1` [GT-08108, 2-(2,4-dioxotetrahydropyrimidin-1(2H)-yl)-5-((4-(6-phenylthieno[2,3-d]pyrimidin-4-yl)piperidin-1-yl)methyl)isoindoline-1,3-dione], the “WEE1 substrate protein remaining %” value at WEE1 was “A (0% ≤ substrate protein remaining % ≤80%)”. The “IKZF1 substrate protein remaining %” value on IKZF1 is recorded as “A (0% ≤ substrate protein remaining % ≤80%)”. Moreover, the “IKZF2 substrate protein remaining %” value at IKZF2 is given as “A (0% ≤ substrate protein remaining % ≤80%)”. Also, at IKZF3, the “IKZF3 substrate protein remaining %” value is listed as “A (0% ≤ substrate protein remaining % ≤80%)”. Further, at CK1α, the “CK1α substrate protein remaining %” value is reported as “A (0% ≤ substrate protein remaining % ≤80%)”. For the same compound, the “GSPT1 substrate protein remaining %” value at GSPT1 was “A (0% ≤ substrate protein remaining % ≤80%)”.
For the compound `O=C1CCN(N2C(=O)c3ccc(CN4CCC(c5ncnc6scc(-c7ccccc7)c56)CC4)cc3C2=O)C(=O)N1` [GT-08109, 2-(2,4-dioxotetrahydropyrimidin-1(2H)-yl)-5-((4-(5-phenylthieno[2,3-d]pyrimidin-4-yl)piperidin-1-yl)methyl)isoindoline-1,3-dione], the “WEE1 substrate protein remaining %” value on WEE1 is listed as “A (0% ≤ substrate protein remaining % ≤80%)”. The “IKZF1 substrate protein remaining %” value at IKZF1 is given as “A (0% ≤ substrate protein remaining % ≤80%)”. On IKZF2, the “IKZF2 substrate protein remaining %” value is listed as “A (0% ≤ substrate protein remaining % ≤80%)”. Besides, the “IKZF3 substrate protein remaining %” value at IKZF3 is “A (0% ≤ substrate protein remaining % ≤80%)”. Further, the “CK1α substrate protein remaining %” value at CK1α was “A (0% ≤ substrate protein remaining % ≤80%)”. The “GSPT1 substrate protein remaining %” value at GSPT1 is “A (0% ≤ substrate protein remaining % ≤80%)”.
In the case of `Cc1nc(C2CCN(Cc3ccc4c(c3)C(=O)N(N3CCC(=O)NC3=O)C4=O)CC2)c2c(-c3ccccc3)csc2n1` [GT-08110, 2-(2,4-dioxotetrahydropyrimidin-1(2H)-yl)-5-((4-(2-methyl-5-phenylthieno[2,3-d]pyrimidin-4-yl)piperidin-1-yl)methyl)isoindoline-1,3-dione], the “WEE1 substrate protein remaining %” value on WEE1 is listed as “A (0% ≤ substrate protein remaining % ≤80%)”. Moreover, the “IKZF1 substrate protein remaining %” value on IKZF1 is recorded as “A (0% ≤ substrate protein remaining % ≤80%)”. In addition, on IKZF2, the “IKZF2 substrate protein remaining %” value is listed as “A (0% ≤ substrate protein remaining % ≤80%)”. Moreover, the “IKZF3 substrate protein remaining %” value at IKZF3 was “A (0% ≤ substrate protein remaining % ≤80%)”. Also, the “CK1α substrate protein remaining %” value on CK1α is “A (0% ≤ substrate protein remaining % ≤80%)”. In addition, the “GSPT1 substrate protein remaining %” value at GSPT1 is reported as “A (0% ≤ substrate protein remaining % ≤80%)”.
Regarding `Cc1nc(C2CCN(Cc3ccc4c(c3)C(=O)N(N3CCC(=O)NC3=O)C4=O)CC2)c2c3c(sc2n1)CCCC3` [GT-08111, 2-(2,4-dioxotetrahydropyrimidin-1(2H)-yl)-5-((4-(2-methyl-5,6,7,8-tetrahydrobenzo[4,5]thieno[2,3-d]pyrimidin-4-yl)piperidin-1-yl)methyl)isoindoline-1,3-dione], the “WEE1 substrate protein remaining %” value on WEE1 is on record as “B (80%< substrate protein remaining % ≤100%)”. The “IKZF1 substrate protein remaining %” value on IKZF1 is listed as “B (80%< substrate protein remaining % ≤100%)”. Further, on IKZF2, the “IKZF2 substrate protein remaining %” value is “B (80%< substrate protein remaining % ≤100%)”. Further, the “IKZF3 substrate protein remaining %” value at IKZF3 was “B (80%< substrate protein remaining % ≤100%)”. The “CK1α substrate protein remaining %” value on CK1α is “A (0% ≤ substrate protein remaining % ≤80%)”. The “GSPT1 substrate protein remaining %” value on GSPT1 is given as “A (0% ≤ substrate protein remaining % ≤80%)”.
As for `O=C1CCN(N2Cc3cc(CN4CCC(c5ncnc6sc7c(c56)CCCC7)CC4)ccc3C2=O)C(=O)N1` [GT-08112, 1-(1-oxo-5-((4-(5,6,7,8-tetrahydrobenzo[4,5]thieno[2,3-d]pyrimidin-4-yl)piperidin-1-yl)methyl)isoindolin-2-yl)dihydropyrimidine-2,4(1H,3H)-dione], at WEE1, the “WEE1 substrate protein remaining %” value is given as “B (80%< substrate protein remaining % ≤100%)”. At IKZF1, the “IKZF1 substrate protein remaining %” value is given as “B (80%< substrate protein remaining % ≤100%)”. For the same compound, the “IKZF2 substrate protein remaining %” value at IKZF2 is recorded as “B (80%< substrate protein remaining % ≤100%)”. For the same compound, the “IKZF3 substrate protein remaining %” value on IKZF3 was “B (80%< substrate protein remaining % ≤100%)”. For the same compound, the “CK1α substrate protein remaining %” value on CK1α is “B (80%< substrate protein remaining % ≤100%)”. Further, at GSPT1, the “GSPT1 substrate protein remaining %” value is “A (0% ≤ substrate protein remaining % ≤80%)”.
